Assay results reported in patent US20090192048A1, “METHOD OF PRODUCING A […] AGENT FOR BINDING A LIGAND” (priority 2005, published 2009).
Ends that are not written are not given here.

Columns and labels:
Format in all cases: physicochemical
[1] = Retention of peptides 2DOS-1 to 2DOS-16 on a hydrophobic surface (polypropylene microtitre plate wells), water wash; conditions: 400V scan; for Initial fluorescence (×10^3): 100 μl of 10 μM peptide before drying and washing; for Recovered fluorescence (×10^3): dried, washed ten times with 250 μl water, resuspended
Experimental: The retention of peptides 2DOS-1 to 2DOS-16 on a hydrophobic surface (the wells of a polypropylene microtitre plate) was then investigated.
(§1) 10 mM tris-HCl (pH 8.0) in 50% (v/v) aqueous acetonitrile was used as the solvent for the peptides and for TAMRA.
100 μl aliquots of 10 μM peptides 2DOS-1 to 2DOS-16 and 10 μM TAMRA were placed in the wells of a Costar microtitre plate as shown in FIG. 13:
(§2) The microtitre plate was imaged at 200 μm resolution on a Typhoon Trio Plus variable mode imager (Amersham Biosciences) with the green (532 nm) laser and the 580 BP 30 filter at the PMT voltages indicated below and at normal sensitivity. The scan height was set at +3 mm and the sample was pressed during scanning.
The peptides were allowed to evaporate to dryness overnight in the dark and the microtitre plate was again scanned as described above.
The wells were then washed ten times with 250 μl of water.
The residual surface-bound peptides were finally resuspended in 100 μl of 10 mM tris-HCl (pH 8.0) in 50% (v/v) aqueous acetonitrile and the microtitre plate was again scanned as described above.
(§3) The fluorescence images were analysed using ImageQuant TL v2003.03 (Amersham Biosciences).
Quantification data (using the data from the 400V scan) is given in Table 2 and shown graphically in FIG. 15.

[2] = Retention of peptides in V-bottomed polypropylene wells; conditions: V-bottom wells, 500V scan; for Untreated fluorescence: unwashed; for Retained fluorescence: washed 15 minutes in 1 M NaCl in 10 mM tris-HCl (pH 8.0)
Experimental: (§4) The retention of peptides 2DOS-1 to 2DOS-16 (see above) on polypropylene wells of different geometries was investigated:
as §1
(§5) 1 μl aliquots of 10 μM peptides 2DOS-1 to 2DOS-16 and 10 μM TAMRA were pipetted into the wells of a Costar V-bottomed polypropylene microtitre plate and a Greiner flat-bottomed polypropylene microtitre plate according to the following scheme as shown in FIG. 22:
(§6) The peptide samples were allowed to evaporate to dryness in the dark.
(§7) The peptide samples in the top two rows of the microtitre plates were then incubated for 15′ minutes at room temperature in 250 μl of 1 M NaCl in 10 mM tris-HCl (pH 8.0).
(§8) After incubation, the wash buffer was pipetted up and down eight times in the well before removing the supernatant.
(§9) The washed and untreated peptide samples were then resuspended in 50 μl of 10 mM tris-HCl (pH 8.0) in 50% (v/v) aqueous acetonitrile.
as §2, with “plates were” for “plate was”, “the platen” for “+3 mm”, “during,” for “during”
as §3

[3] = Retention of peptides in flat-bottomed polypropylene wells; conditions: flat-bottom wells, 500V scan; for Untreated fluorescence: unwashed; for Retained fluorescence: washed 15 minutes in 1 M NaCl in 10 mM tris-HCl (pH 8.0)
Experimental: as §4, §1, §5, §6, §7, §8, §9
as §2, with “plates were” for “plate was”, “the platen” for “+3 mm”, “during,” for “during”
as §3

[4] = Retention of peptides on Costar polypropylene V-bottom wells; conditions: 400V scan; for Untreated fluorescence: unwashed; for Retained fluorescence: washed 15 minutes in 1 M NaCl in 10 mM tris-HCl (pH 8.0)
Experimental: (§10) The retention of peptides 2DOS-1 to 2DOS-16 (see above) on polypropylene and polystyrene surfaces was compared:
(§11) 5 mM tris-HCl (pH 8.0) in 75% (v/v) aqueous acetonitrile was used as the solvent for the peptides and for TAMRA.
(§12) 20 μl aliquots of 5 μM peptides 2DOS-1 to 2DOS-16 and 5 μM TAMRA were pipetted into the wells of a Costar V-bottomed polypropylene microtitre plate, a Greiner V-bottomed polypropylene microtitre plate, and a Greiner V-bottomed polystyrene microtitre plate according to the scheme shown in FIG. 26:
as §6
(§13) The peptide samples in the top two rows of the microtitre plates were then incubated for 15 minutes at room temperature in 250 μl of 1 M NaCl in 10 mM tris-HCl (pH 8.0).
as §8, §9
as §2, with “plates were” for “plate was”
as §3

[5] = Retention of peptides on Greiner polypropylene V-bottom wells; conditions: 400V scan; for Untreated fluorescence: unwashed; for Retained fluorescence: washed 15 minutes in 1 M NaCl in 10 mM tris-HCl (pH 8.0)
Experimental: as §10, §11, §12, §6, §13, §8, §9
as §2, with “plates were” for “plate was”
as §3

[6] = Retention of peptides on Greiner polystyrene V-bottom wells; conditions: 400V scan; for Untreated fluorescence: unwashed; for Retained fluorescence: washed 15 minutes in 1 M NaCl in 10 mM tris-HCl (pH 8.0)
Experimental: as §10, §11, §12, §6, §13, §8, §9
as §2, with “plates were” for “plate was”
as §3

| Substance | Initial fluorescence (×10^3) [1] | Recovered fluorescence (×10^3) [1] | Percent retention [2] [%] | Untreated fluorescence [2] | Retained fluorescence [2] | Percent retention [3] [%] | Untreated fluorescence [3] | Retained fluorescence [3] | Percent retention [4] [%] | Untreated fluorescence [4] | Retained fluorescence [4] | Percent retention [5] [%] | Untreated fluorescence [5] | Retained fluorescence [5] | Percent retention [6] [%] | Untreated fluorescence [6] | Retained fluorescence [6] |
| --- | --- | --- | --- | --- | --- | --- | --- | --- | --- | --- | --- | --- | --- | --- | --- | --- | --- |
| N-TAMRA-Norleu- Asp-Norleu-Ala- Norleu-Ser-Norleu- Lys-Norleu-C [Peptide 2DOS-1] | 33,015 ×10^3 | 7,459 ×10^3 | 70 | 9,550,835 | 6,641,271 | 14 | 14,949,396 | 2,157,124 | 52 | 6,458,364 | 3,366,403 | 37 | 3,328,960 | 1,235,460 | 35 | 640,145 | 225,686 |
| N-TAMPA-Asp-Asp- Asp-Asp-Asp-Asp- Asp-Asp-Asp-C ({TAMRA}-DDDDDDDDD) [Peptide 2DOS-12] | 26,433 ×10^3 | 1 ×10^3 | 1 | 6,777,661 | 52,365 | 1 | 12,982,170 | 106,741 | 0 | 4,432,090 | 18,180 | 1 | 3,235,590 | 20,175 | 1 | 684,832 | 3,788 |
| N-TAMPA- Asp-Norleu- Ala-Norleu-Ser- Norleu-Lys-C [Peptide 2DOS-5] | 32,473 ×10^3 | 1,270 ×10^3 | 36 | 8,664,667 | 3,116,833 | 45 | 14,337,629 | 6,492,170 | 31 | 5,331,763 | 1,651,850 | 27 | 3,817,250 | 1,048,978 | 23 | 745,029 | 171,500 |
| N-TAMPA-Norleu- Asp-Norleu-Asp- Norleu-Asp-Norleu- Asp-Norleu-C [Peptide 2DOS-9] | 34,587 ×10^3 | 2,382 ×10^3 | 14 | 11,662,691 | 1,608,482 | 16 | 13,456,698 | 2,148,849 | 17 | 7,102,251 | 1,184,648 | 12 | 3,621,913 | 439,252 | 10 | 626,304 | 62,023 |
